Experimental findings from patent US7084176B2, “N-arylphenylacetamide derivatives and medicinal compositions containing the same” (Dainippon Pharmaceutical Co., Ltd., priority 2001, dated 2006) are described below.

Where two headings read alike, the source gives them in different places. Some results are limits rather than exact numbers.

In this test the test system is male Std:ddY mice. Description: Phenyl-1,4-benzoquinone-induced writhing test. In kind it is in vivo. Particulars: for inhibition in vivo at 10 mg/kg / ED50 / inhibition in vivo at 1 mg/kg: Mus musculus; for inhibition in vivo at 10 mg/kg / inhibition in vivo at 1 mg/kg: 1 h, read-out: Inhibitory percentage (%); for inhibition in vivo at 10 mg/kg / Inhibitory percentage (%): orally administered at a dose of 10 mg/kg; for inhibition in vivo at 10 mg/kg / Inhibitory percentage (%) / inhibition in vivo at 1 mg/kg: 60 minutes before PBQ; for ED50 / ED50 (mg/kg po) / Inhibitory percentage (%): writhing inhibition; for ED50 / ED50 (mg/kg po): logit analysis; for inhibition in vivo at 1 mg/kg: subcutaneously administered at a dose of 1 mg/kg. Here is the method: Phenyl-1,4-benzoquinone-induced Writhing Test Referring to the method disclosed in Proc. Soc. exp. Biol. […] For oral administration, a test compound was suspended in 0.5% tragacanth solution. […] In the control group, a physiological saline solution containing 10% Tween 80 and 10% ethanol was administered in the case of subcutaneous administration, or a 0.5% tragacanth solution was administered in the case of oral administration. The number of writhing movements in the test compound-treated group was compared with that in the control group, and the writhing inhibitory percentage was calculated therefrom and considered as an analgesic effect. Writhing inhibitory percentage (%)=[(A−B)/A]×100 In the above equation, A means the number of writhing movements in the control group, and B means the number of writhing movements in the test compound-treated group. From the writhing inhibitory percentage of the test compound, ED50 (mg/kg) was calculated by logit analysis.
For orientation: Writhing tests count abdominal constrictions after an irritant is injected.

[1] abbreviates: po, oral administration, read-out: ED50 (mg/kg po).
The mark [2] stands for this setting: sc, subcutaneous administration, read-out: ED50 (mg/kg sc).

For `COc1cc(CC(=O)Nc2cccc(-c3cccc(C(C)C)c3)c2)ccc1OCCN` [Example 136, 4-(2-aminoethoxy)-N-[3-(3-isopropylphenyl)phenyl]-3-methoxyphenylacetamide], where the note is “po”, the inhibition in vivo at 10 mg/kg was 99%. In addition, the ED50 under setting [1] was 3.11 mg/kg.

As for `COc1cc(CC(=O)Nc2ccc(OC(F)(F)F)c(-c3ccccc3)c2)ccc1OCCN` [Example 179, 4-(2-aminoethoxy)-3-methoxy-N-[(3-phenyl-4-trifluoromethoxy)-phenyl]phenylacetamide], the “Inhibitory percentage (%)” value stood at 100%. Where the note is “oral administration, listed as Ex. 179”, the “ED50 (mg/kg po)” value turned out to be 0.95 mg/kg.

Consider `COc1cc(CC(=O)Nc2cccc(C3CCCC3)c2)ccc1O` [Example 4, N-(3-cyclopentylphenyl)-4-hydroxy-3-methoxyphenylacetamide], for which the inhibition in vivo at 1 mg/kg (sc) was 79.6%.

Take `COc1cc(CC(=O)Nc2cccc(C3CCC(C(F)(F)F)CC3)c2)ccc1O` (stereo not shown) [Example 81, 4-hydroxy-3-methoxy-N-[3-(4-trifluoromethylcyclohexan-1-yl)-phenyl]phenylacetamide]: the inhibition in vivo at 1 mg/kg (sc) amounted to 100%.

Consider `COc1cc(CC(=O)Nc2cccc(-c3cccn3C(=O)OC(C)(C)C)c2)ccc1O` [Example 101, 4-hydroxy-3-methoxy-N-[3-(1-tert-butoxycarbonylpyrrol-2-yl)-phenyl]phenylacetamide], for which the inhibition in vivo at 1 mg/kg (sc) was 100%. Further, under setting [2], the ED50 is 0.23 mg/kg.

In the case of `COc1cc(CC(=O)Nc2cccc(C3C4CC5CC(C4)CC3C5)c2)ccc1O` (stereo not shown) [Example 3, N-[3-(adamantan-2-yl)phenyl]-4-hydroxy-3-methoxyphenylacetamide], the inhibition in vivo at 1 mg/kg (sc) amounted to 91.3%. Besides, under setting [2], the ED50 worked out at 0.46 mg/kg.

On to `COc1cc(CC(=O)Nc2cccc(N3CCCC4(CCCCC4)C3)c2)ccc1OCCN` [Example 201, 4-(2-aminoethoxy)-3-methoxy-N-[3-(2-azaspiro[5, 5]undecan-2-yl)phenyl]phenylacetamide], for which, for the setting “po”, the inhibition in vivo at 10 mg/kg came out at 100%. Further, the ED50 under setting [1] is 2.04 mg/kg.

`COc1cc(CC(=O)Nc2ccc3c(c2)C(=O)C(CC(C)C)CC3)ccc1O` (stereo not shown) [Ex. 251, 4-hydroxy-3-methoxy-N-[1-oxo-2-(2-methylpropyl)-1,2,3,4-tetrahydronaphthalen-7-yl]phenylacetamide]: the inhibition in vivo at 1 mg/kg (sc) amounted to 42.7%.

As for `COc1cc(CC(=O)Nc2cccc(-c3ccccc3)c2)ccc1O` [Example 35, 4-hydroxy-3-methoxy-N-(3-phenylphenyl)phenylacetamide], where the note is “sc”, the inhibition in vivo at 1 mg/kg worked out at 89.4%. Besides, under setting [2], the ED50 turned out to be 0.23 mg/kg.

For `CS(=O)(=O)Nc1cc(CC(=O)Nc2cccc(C3CCCCC3)c2)ccc1O` [Ex. 34, N-(3-cyclohexylphenyl)-4-hydroxy-3-(methanesulfonylamino)phenylacetamide], under “sc”, the inhibition in vivo at 1 mg/kg was determined as 41.5%. Under setting [2], the ED50 was 0.48 mg/kg.

In the case of `COc1cc(CC(=O)Nc2cccc(C#Cc3ccccc3C(F)(F)F)c2)ccc1O` [Ex. 37, 4-hydroxy-3-methoxy-N-[3-[2-(2-trifluoromethylphenyl)-ethynyl]phenyl]phenylacetamide], where the note is “sc”, the inhibition in vivo at 1 mg/kg came out at 59.6%. In addition, under setting [2], the ED50 was found to be 0.46 mg/kg.

`COc1cc(CC(=O)Nc2cccc(CCC3CCCCC3)c2)ccc1O` [Example 114, 4-hydroxy-3-methoxy-N-[3-(2-cyclohexylethyl)phenyl]phenylacetamide]: the inhibition in vivo at 1 mg/kg (sc) worked out at 98%.

Take `COc1cc(CC(=O)Nc2cc(-c3ccccc3)cc(F)c2OC)ccc1OCCN` [Example 171, 4-(2-aminoethoxy)-N-[(2-methoxy-3-fluoro-5-phenyl)phenyl]-3-methoxyphenylacetamide]: the “Inhibitory percentage (%)” value worked out at 94.0%. Besides, where the note is “oral administration, listed as Ex. 171”, the “ED50 (mg/kg po)” value is given as 0.96 mg/kg.

As to `COc1cc(CC(=O)Nc2cccc(-c3ccccc3Cl)c2)ccc1OCCN` [Example 125, 4-(2-aminoethoxy)-N-[3-(2-chlorophenyl)phenyl]-3-methoxyphenylacetamide], the inhibition in vivo at 10 mg/kg (po) turned out to be 93%. Also, under setting [1], the ED50 was at most 1 mg/kg. The “ED50 (mg/kg po)” value (oral administration, listed as Ex. 125) came to 0.71 mg/kg.
